Source: patent US12596108B2, “Automated lipid exchange-mass spectrometry systems and methods” (ARIZONA BOARD OF REGENTS ON BEHALF OF THE UNIVERSITY OF …, priority 2020, dated 2026)

Biological target: T1, AmtB, an E. coli ammonia channel (Escherichia coli, UniProt P69681)
T1 construct: HIS (polyhistidine) (N, cleaved yes); MBP (N, cleaved yes); TEV site (N, cleaved yes); made in house; host or cells: E. coli
Test: Lipid exchange-mass spectrometry (LX-MS) between AmtB nanodiscs and tagged empty nanodiscs
Assay type: binding
Details: for optimal ratio for AmtB POPC/POPG (isolipid point) / lipid preference of AmtB (in words): LX-MS; for lipid preference of AmtB (in words) / isolipid point (mole fraction where Xp−Xt=0): POPC/POPG nanodiscs; for isolipid point (mole fraction where Xp−Xt=0): exchange at room temperature (21-23° C.) over 2.8 days, sigmoidal fit of Xt versus Xp−Xt
Method: AmtB, an E. coli ammonia channel, was incorporated into untagged nanodiscs with 50/50 1-palmitoyl-2-oleoyl-sn-glycero-3-phosphocholine (POPC)/1-palmitoyl-2-oleoyl-sn-glycero-3-phospho-(1′-racglycerol) (POPG). Polyhistidine-tagged empty nanodiscs without AmtB were also prepared at various POPC/POPG ratios ranging from 0 to 100% POPC. In one embodiment, the ratios were 0%, 20%, 40%, 50%, 60%, 80%, and 100% POPC Tagged empty nanodiscs were mixed with untagged AmtB nanodiscs, and the mixture was allowed to exchange at room temperature (21-23° C.) over 2.8 days. After exchange, internal standards containing PC and PG lipids with different tail lengths were added, and the total lipid mole fraction of POPC, Xt, was measured (tagged and untagged) by direct infusion MS. Then, the tagged empty nanodiscs were removed by passing the mixture over immobilized metal affinity chromatography (IMAC) beads, and the untagged AmtB nanodiscs were measured alone to determine the lipid mole fraction in the membrane protein nanodiscs, Xp. Preliminary experiments confirmed that the exchange was within experimental error (typically 2-4% absolute mole fraction) by 2.8 days, but a full examination of kinetics was not performed due to limited amounts of sample.
At high total POPC, AmtB shifted the equilibrium to acquire more POPG in the AmtB nanodiscs. Conversely, at low POPC levels, AmtB shifted the equilibrium to enrich the AmtB nanodiscs in POPC.
After establishing that AmtB remodels the local membrane environment, Xt versus Xp−Xt was fit to a sigmoidal curve and the x-intercept where Xp−Xt=0 was determined. At this mole fraction, which is termed the isolipid point, the lipid composition of the membrane protein nanodiscs is the same as the empty nanodiscs. The composition of the annular lipids matches the bulk lipid bilayer at the isolipid point.
The 50% POPC AmtB nanodiscs were mixed with empty nanodiscs assembled with the polyhistidine tagged MSP1E3D1 in POPC/(POPC+POPG) mole fractions of 0, 20, 40, 60, 80, or 100% at a 1:1 molar ratio and a final concentration of 2.3 μM AmtB nanodiscs. To extend the titration to a lower total POPC mole fraction (Xt), the AmtB nanodiscs were mixed with 0% POPC empty nanodiscs at a 1:2.6 molar ratio while keeping the AmtB nanodiscs at 2.3 μM. The mixtures were incubated at room temperature (21-23° C.) for 2.8 days to allow the lipid exchange to reach equilibrium. […] Control experiments were also performed using 50% POPC untagged empty nanodiscs mixed with empty nanodiscs assembled with the polyhistidine-tagged MSP1E3D1 in POPC/(POPC+POPG) mole fractions of 0, 20, 40, 60, 80, or 100% at a 1:1 molar ratio and a final concentration of 2.3 μM MSP as well as at a 1:2.6 molar ratio with 0% nanodiscs.
After exchanging, tagged empty nanodiscs and untagged (either empty or AmtB) nanodiscs were separated by IMAC using a Ni-NTA His SpinTrap (GE Healthcare). Because small exchange volumes of roughly 16 μL were used, around ⅓ of the 100 μL column volume was removed for a final column volume around 66 μL. The SpinTrap was prepared by three washes of 450 μL loading buffer (20 mM imidazole, 0.2 M ammonium acetate, pH 7.6) to equilibrate the column. Prior to addition to the beads, the imidazole concentration of the exchange mixture was adjusted to 20 mM by adding a 1 M imidazole solution (pH 7.6 adjusted with acetic acid) to limit the non-specific binding of the untagged nanodiscs. Then, the exchange reaction mixture was added to the IMAC beads and allowed to incubate for 1-2 minutes at 4° C. The flow-through was removed by centrifugation at 100 g for 45 seconds, and extra loading buffer of 20 μL was added to the column and washed under the same centrifugation procedures. […] Thus, the first wash was collected for MS analysis to maximize the lipid concentration. Around 20 μL was typically recovered. After separation, the His SpinTrap was cleaned with three washes of 450 μL elution buffer (400 mM imidazole, 0.2 M ammonium acetate, pH 7.8). […]

T1 sequence (P69681 23-428): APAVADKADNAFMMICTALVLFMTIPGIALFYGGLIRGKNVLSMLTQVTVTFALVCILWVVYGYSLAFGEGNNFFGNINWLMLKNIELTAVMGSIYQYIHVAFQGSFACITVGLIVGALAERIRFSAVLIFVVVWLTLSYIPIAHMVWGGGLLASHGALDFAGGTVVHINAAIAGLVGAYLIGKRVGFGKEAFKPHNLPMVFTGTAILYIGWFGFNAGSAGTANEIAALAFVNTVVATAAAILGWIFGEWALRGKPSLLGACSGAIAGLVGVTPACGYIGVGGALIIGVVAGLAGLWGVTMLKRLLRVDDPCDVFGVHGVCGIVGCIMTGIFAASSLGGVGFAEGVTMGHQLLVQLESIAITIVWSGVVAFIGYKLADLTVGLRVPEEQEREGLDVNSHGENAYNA

| Compound | optimal ratio for AmtB POPC/POPG (isolipid point) | lipid preference of AmtB (in words) | isolipid point (mole fraction where Xp−Xt=0) |
| --- | --- | --- | --- |
| CCCCCCCC/C=C\CCCCCCCC(=O)O[C@H](COC(=O)CCCCCCCCCCCCCCC)COP(=O)(O)OCC(O)CO (mixture of isomers) [POPG, 1-palmitoyl-2-oleoyl-sn-glycero-3-phospho-(1′-racglycerol)] | 76 | clear preference for POPG | 76±2% |
| CCCCCCCC/C=C\CCCCCCCC(=O)O[C@H](COC(=O)CCCCCCCCCCCCCCC)COP(=O)([O-])OCC[N+](C)(C)C [POPC, 1-palmitoyl-2-oleoyl-sn-glycero-3-phosphocholine] | 24 | some affinity for POPC | 24±2% |
